For one data set, the target named is T1, CYP2D6 (Homo sapiens, UniProt P10635).
T1 construct: purchased BD Gentest, Becton-Dickinson (Supersomes); host or cells: insect cells (microsomes)
The data set can be described thus: Cytochrome P450 inhibition, CYP2D6. The note with it: Supersomes; read-out: IC50 (μM) 2D6. The data set is classed as in vitro ADME. From the text: (§1) F. Assay for Cytochrome P450 Inhibition
(§2) Cytochrome P450 enzymes are implicated in the phase I metabolism of drugs. The majority of drug-drug interactions are metabolism-based and, moreover, these interactions typically involve inhibition of cytochrome P450s. Six CYP450 enzymes (CYP1A2, CYP2C8, CYP2C9, CYP2C19, CYP2D6 and CYP3A4) appear to be commonly responsible for the metabolism of most drugs and the associated drug-drug interactions. Assays to determine the binding of compounds of the invention to the various metabolically important isoforms of cytochrome P450 metabolizing enzymes are commercially available, for example NoAb BioDiscoveries (Mississaugua, ON, Canada) and Absorption Systems (Exton, Pa., USA). As well, a number of appropriate methods have been described or reviewed in the literature. (White, R. E. Ann. Rev. Pharmacol. Toxicol. 2000, 40, 133-157; Li, A. P. Drug. Disc. Today 2001, 6, 357-366; Turpeinen, M.; Korhonen, L. E. Tolonen, A.; et al. Eur. J. Pharm. Sci. 2006, 29, 130-138.)
(§3) The concentration of the inhibitor or test compound that inhibited metabolite formation by 50% (IC50) was calculated by non-linear regression analysis of the % inhibition vs. log concentration (M) curve.

A further data set addresses T2, CYP3A4 (Homo sapiens, UniProt P08684).
T2 construct: purchased BD Gentest, Becton-Dickinson (Supersomes); host or cells: insect cells (microsomes)
Description: Cytochrome P450 inhibition, CYP3A4. Format: in vitro ADME. The note with it: Supersomes.
Source text: as §1, §2, §3

Data set [1] has as its system strips of rabbit duodenum. The data set can be described thus: Rabbit duodenum contractility assay. The note with it: pA2 from Schild plot, motilin dose response after 15 minute incubation. As for the experimental part: D. Rabbit Duodenum Contractility Assay
Evaluation of compounds of the invention for ex vivo activity was conducted on strips of rabbit duodenum according to literature methods. (Van Assche, G.; Depoortere, I.; Thijs, T.; Janssens, J. J.; Peeters, T. L. Eur. J. Pharmacol. 1997, 337, 267-274; Matthijs, G.; Peeters, T. L.; Vantrappen, G. Naunyn-Schmiedeberg's Arch. Pharmacol. 1989, 339, 332-339.) Related methods can also be employed for this type of study. (Tomomasa, T.; Yagi, H.; Kimura, S.; Snape, W. J., Jr.; Hyman, P. E. Pediatric Res. 1989, 26, 458-461; Takanishi, H.; Yogo, K.; Ozaki, M.; Akima, M.; Koga, H.; Nabata, H. J. Pharm. Exp. Ther. 1995, 273, 624-628.)
Duodenal segments were vertically suspended in organ chambers of 10 mL filled with Krebs buffer and connected to an isotonic force transducer, with a preload of 1 g. After a stabilization period, the muscle strips were challenged with 10^−4 M acetylcholine and washed. This was repeated until a stable maximal contraction was obtained (2-3 times), with an interval of at least 20 minutes.
After a stable base line was reached, test compounds were added to the bath. After a 15 minute incubation, a dose response to motilin was recorded by adding logarithmically increasing concentrations of motilin to the bath (final concentration 10^−9 to 10^−6 M). A blank experiment (no test compound present) was also performed. At the end of the dose response curve, a supramaximal dose of acetylcholine (10^−4 M) was given and this response was used as a reference (100% contraction).
The results of experiments at different concentrations of test compound were combined and analyzed to derive the pA2 value from the Schild plot.

A further data set addresses T3, CYP2C8 (Homo sapiens, UniProt P10632).
T3 construct: purchased BD Gentest, Becton-Dickinson (Supersomes); host or cells: insect cells (microsomes)
T3 sequence (P10632 1-490): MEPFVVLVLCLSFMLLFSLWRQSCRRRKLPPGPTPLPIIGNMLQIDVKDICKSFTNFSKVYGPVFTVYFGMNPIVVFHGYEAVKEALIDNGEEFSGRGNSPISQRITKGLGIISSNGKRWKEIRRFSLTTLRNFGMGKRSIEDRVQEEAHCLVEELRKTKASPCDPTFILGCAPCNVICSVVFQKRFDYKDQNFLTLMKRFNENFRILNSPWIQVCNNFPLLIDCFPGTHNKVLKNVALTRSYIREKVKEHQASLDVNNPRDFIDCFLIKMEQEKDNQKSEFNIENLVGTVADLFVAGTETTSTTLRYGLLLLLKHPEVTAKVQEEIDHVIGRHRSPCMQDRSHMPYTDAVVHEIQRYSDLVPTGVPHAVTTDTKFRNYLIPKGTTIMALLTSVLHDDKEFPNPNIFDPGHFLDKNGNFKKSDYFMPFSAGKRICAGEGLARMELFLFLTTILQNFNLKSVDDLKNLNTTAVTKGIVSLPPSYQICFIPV
Description: Cytochrome P450 inhibition, CYP2C8. Format: in vitro ADME. The note with it: Supersomes; read-out: IC50 (μM) 2C8.
Source text: as §1, §2, §3

Another data set has as its target T4, CYP1A2 (Homo sapiens, UniProt P05177).
T4 construct: purchased BD Gentest, Becton-Dickinson (Supersomes); host or cells: insect cells (microsomes)
T4 sequence (P05177 1-516): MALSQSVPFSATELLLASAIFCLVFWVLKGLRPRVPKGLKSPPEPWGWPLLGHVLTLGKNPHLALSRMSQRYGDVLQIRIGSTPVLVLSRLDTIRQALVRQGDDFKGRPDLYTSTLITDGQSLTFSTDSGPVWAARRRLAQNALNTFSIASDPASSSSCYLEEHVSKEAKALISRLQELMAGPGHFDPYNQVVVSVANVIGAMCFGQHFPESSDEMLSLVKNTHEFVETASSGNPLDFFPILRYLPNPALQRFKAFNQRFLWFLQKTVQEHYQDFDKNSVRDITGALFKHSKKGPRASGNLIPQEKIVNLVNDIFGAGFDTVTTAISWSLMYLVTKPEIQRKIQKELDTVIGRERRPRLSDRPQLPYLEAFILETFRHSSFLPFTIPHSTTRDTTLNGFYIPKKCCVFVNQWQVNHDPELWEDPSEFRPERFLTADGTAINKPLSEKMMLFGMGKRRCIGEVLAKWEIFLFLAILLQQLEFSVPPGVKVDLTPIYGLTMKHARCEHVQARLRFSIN
The data set can be described thus: Cytochrome P450 inhibition, CYP1A2. Format: in vitro ADME. To be noted: Supersomes; read-out: IC50 (μM) 1A2.
Source text: as §1, §2, §3

The next data set has as its target T5, CYP2C9 (Homo sapiens, UniProt P11712).
T5 construct: purchased BD Gentest, Becton-Dickinson (Supersomes); host or cells: insect cells (microsomes)
Description: Cytochrome P450 inhibition, CYP2C9. Format: in vitro ADME. The note with it: Supersomes; read-out: IC50 (μM) 2C9.
Source text: as §1, §2, §3

For the next data set, the target named is T6, CYP2C19 (Homo sapiens, UniProt P33261).
T6 construct: purchased BD Gentest, Becton-Dickinson (Supersomes); host or cells: insect cells (microsomes)
T6 sequence (P33261 whole entry): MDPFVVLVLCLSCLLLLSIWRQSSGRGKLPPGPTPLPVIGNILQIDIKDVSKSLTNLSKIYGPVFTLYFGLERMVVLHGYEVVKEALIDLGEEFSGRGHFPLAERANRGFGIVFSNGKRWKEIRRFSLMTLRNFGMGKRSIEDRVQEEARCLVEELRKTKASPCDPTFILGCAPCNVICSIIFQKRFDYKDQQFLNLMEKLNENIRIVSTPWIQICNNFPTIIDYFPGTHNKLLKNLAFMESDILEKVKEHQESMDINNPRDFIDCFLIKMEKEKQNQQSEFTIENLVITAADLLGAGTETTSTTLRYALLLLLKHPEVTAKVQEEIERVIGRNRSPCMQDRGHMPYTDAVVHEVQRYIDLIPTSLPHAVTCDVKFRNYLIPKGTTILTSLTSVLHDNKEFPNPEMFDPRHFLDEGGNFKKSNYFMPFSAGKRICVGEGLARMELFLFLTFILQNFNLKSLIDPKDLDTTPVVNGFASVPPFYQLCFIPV
The data set can be described thus: Cytochrome P450 inhibition, CYP2C19. Format: in vitro ADME. To be noted: Supersomes; read-out: IC50 (μM) 2C19.
Source text: as §1, §2, §3

The target of another data set is T7, CYP2E1 (Homo sapiens, UniProt P05181).
T7 construct: purchased BD Gentest, Becton-Dickinson (Supersomes); host or cells: insect cells (microsomes)
T7 sequence (P05181 whole entry): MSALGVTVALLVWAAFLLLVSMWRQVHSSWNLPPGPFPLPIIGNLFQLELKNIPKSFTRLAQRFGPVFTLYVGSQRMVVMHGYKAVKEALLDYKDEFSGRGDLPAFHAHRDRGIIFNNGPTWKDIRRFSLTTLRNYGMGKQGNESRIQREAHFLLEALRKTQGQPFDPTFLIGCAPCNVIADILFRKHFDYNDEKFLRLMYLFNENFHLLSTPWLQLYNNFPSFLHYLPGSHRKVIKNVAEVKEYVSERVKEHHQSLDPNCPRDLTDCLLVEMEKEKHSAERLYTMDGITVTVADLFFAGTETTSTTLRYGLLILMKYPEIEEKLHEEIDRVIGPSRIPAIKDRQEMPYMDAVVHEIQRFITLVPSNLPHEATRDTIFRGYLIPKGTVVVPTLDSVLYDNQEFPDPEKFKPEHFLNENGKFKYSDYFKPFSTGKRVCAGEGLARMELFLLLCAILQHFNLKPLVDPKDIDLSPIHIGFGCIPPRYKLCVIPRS
Description: Cytochrome P450 inhibition, CYP2E1. The data set is classed as in vitro ADME. To be noted: Supersomes; read-out: IC50 (μM) 2E1.
Source text: as §1, §2, §3

Setting [2] is: substrate BFC, read-out: IC50 (μM) 3A4 (BFC).
Where [3] appears, read: substrate BQ, read-out: IC50 (μM) 3A4 (BQ).

Here are results for three compounds from patent US9133235B2, “Macrocyclic antagonists of the motilin receptor for treatment of gastrointestinal dysmotility disorders” (Ocera Therapeutics, Inc., priority 2006, dated 2015).

Each structure is given as a SMILES string. Read-outs that look alike come from different tables or passages of the source. A value given as a limit tells only on which side of the number the result lay.

As usually defined, the IC50 is the concentration needed to halve the response being measured.

T2 sequence (P08684 whole entry): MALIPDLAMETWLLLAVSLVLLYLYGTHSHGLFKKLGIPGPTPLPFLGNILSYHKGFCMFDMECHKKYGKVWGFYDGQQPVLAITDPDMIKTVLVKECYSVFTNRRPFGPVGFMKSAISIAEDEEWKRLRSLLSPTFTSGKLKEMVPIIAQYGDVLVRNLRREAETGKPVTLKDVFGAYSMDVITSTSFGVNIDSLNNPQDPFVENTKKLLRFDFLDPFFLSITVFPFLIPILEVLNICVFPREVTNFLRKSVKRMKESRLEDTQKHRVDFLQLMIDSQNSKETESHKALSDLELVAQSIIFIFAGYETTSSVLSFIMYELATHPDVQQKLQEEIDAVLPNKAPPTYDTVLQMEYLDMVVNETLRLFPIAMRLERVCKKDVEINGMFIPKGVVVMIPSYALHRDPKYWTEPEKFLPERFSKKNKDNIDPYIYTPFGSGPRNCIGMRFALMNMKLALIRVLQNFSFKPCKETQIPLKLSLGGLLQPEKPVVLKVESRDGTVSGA
T1 sequence (P10635 whole entry): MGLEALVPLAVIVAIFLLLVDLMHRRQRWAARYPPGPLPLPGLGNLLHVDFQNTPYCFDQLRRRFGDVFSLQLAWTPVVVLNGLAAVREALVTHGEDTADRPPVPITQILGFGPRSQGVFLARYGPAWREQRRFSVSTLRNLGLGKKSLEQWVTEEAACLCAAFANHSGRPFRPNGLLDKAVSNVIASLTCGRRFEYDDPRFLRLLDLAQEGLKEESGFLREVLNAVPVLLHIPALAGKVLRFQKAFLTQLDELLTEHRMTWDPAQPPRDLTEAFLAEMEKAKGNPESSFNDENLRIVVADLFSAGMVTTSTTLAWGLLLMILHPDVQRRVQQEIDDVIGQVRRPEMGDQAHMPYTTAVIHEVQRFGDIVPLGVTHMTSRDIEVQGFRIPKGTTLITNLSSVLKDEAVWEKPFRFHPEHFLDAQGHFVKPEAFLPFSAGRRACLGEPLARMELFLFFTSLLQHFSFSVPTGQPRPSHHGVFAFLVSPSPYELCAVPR
T5 sequence (P11712 whole entry): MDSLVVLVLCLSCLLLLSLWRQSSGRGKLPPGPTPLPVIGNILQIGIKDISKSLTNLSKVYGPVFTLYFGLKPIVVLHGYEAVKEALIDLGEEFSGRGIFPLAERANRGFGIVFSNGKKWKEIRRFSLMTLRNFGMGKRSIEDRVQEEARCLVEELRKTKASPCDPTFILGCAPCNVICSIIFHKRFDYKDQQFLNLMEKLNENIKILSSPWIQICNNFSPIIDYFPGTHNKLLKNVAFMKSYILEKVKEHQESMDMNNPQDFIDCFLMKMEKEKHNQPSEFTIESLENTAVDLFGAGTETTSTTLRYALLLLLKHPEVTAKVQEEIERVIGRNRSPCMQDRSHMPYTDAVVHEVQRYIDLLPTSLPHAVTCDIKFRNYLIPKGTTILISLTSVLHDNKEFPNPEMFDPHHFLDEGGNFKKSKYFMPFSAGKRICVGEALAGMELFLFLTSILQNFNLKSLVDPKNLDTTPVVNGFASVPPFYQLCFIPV

For `CCC[C@@H]1NC(=O)[C@@H](C(C)C)NC(=O)[C@@H](Cc2cccc(F)c2)N[C@@H](C)COc2ccccc2CCCNC1=O` [Compound 551], the IC50 at CYP2D6 is 30.1 µM; on CYP3A4 (setting [2]), 2.37 µM; on CYP3A4 (setting [3]), 10.4 µM; at CYP2C8 it was above 100 µM; at CYP1A2 it was above 100 µM; on CYP2C9, 26.9 µM. Further, the half-maximal inhibitory concentration (IC50) on CYP2C19 was 37 µM; on CYP2E1 it was above 100 µM. For the same compound, in data set [1], the “Contractile Potency (pA2)” value came out at 8.29.

As to `CC(C)[C@H]1NC(=O)[C@@H](Cc2cccc(C(F)(F)F)c2)NCCOc2ccccc2CCCNC(=O)[C@H](CN(C)C)NC1=O` [Compound 502], in data set [1], the “Contractile Potency (pA2)” value was determined as 7.92.

With `CCC[C@@H]1NC(=O)[C@@H](C(C)C)NC(=O)[C@@H](Cc2ccc(O)c(C(C)(C)C)c2)NCCOc2ccccc2CCCNC1=O` [Compound 553], the half-maximal inhibitory concentration (IC50) at CYP2D6 is 80.8 µM; on CYP3A4 (setting [2]) it was 0.0192 µM; on CYP3A4 (setting [3]), 3.48 µM; on CYP2C8 it was above 100 µM; at CYP1A2 it was above 100 µM; on CYP2C9, 44.5 µM. In addition, the 50% inhibitory concentration (IC50) at CYP2C19 and at CYP2E1 was above 100 µM each time. In addition, the “Contractile Potency (pA2)” value in data set [1] is given as 8.71.
